# Literature values as cited in paper PMC12256174, “Next-Generation Oral Delivery Systems: Phytosomal Hinokitiol Tablets via REGEMAT 3D Bioprinter-Based 3D Printing for Enhanced Bioavailability” (Scientifica, 2025).
smiles,measurement,value
CC(C)c1cccc(=O)c(O)c1 [Hinokitiol],aqueous solubility,1120 ± 20 µg/mL
